# Test results published in patent US9539342B2, “Auristatin tyramine phosphate salts and auristatin aminoquinoline derivatives and prodrugs thereof” (ARIZONA BOARD OF REGENTS, A BODY CORPORATE OF THE STATE OF …, priority 2011, dated 2017).
# Where two headings read alike, the source gives them in different places.
# Columns and labels:
# [1] = test system: minipanel of human cancer cell lines; assay: Minipanel of human cancer cell lines (summary); format: cell-based; details: for GI50 (order of magnitude over the cell lines): summary of cancer cell growth inhibition
# CNS (SF-268) = assay: Human cancer cell line minipanel: SF-268; format: cell-based; details: for GI50: read-out: GI50 SF-268 (nanomolar value in parentheses)
# [2] = test system: murine P388 lymphocytic leukemia cell line; assay: Murine P388 lymphocytic leukemia cell line growth inhibition; format: cell-based; details: for Activity against P388 (in words): murine P388 lymphocytic leukemia cell line
# pancreas (BXPC-3) = assay: Human cancer cell line minipanel: BXPC-3; format: cell-based; details: for GI50: read-out: GI50 BXPC-3 (nanomolar value in parentheses)
# colon (KM20L2) = assay: Human cancer cell line minipanel: KM20L2; format: cell-based; details: for GI50: read-out: GI50 KM20L2 (nanomolar value in parentheses)
# breast (MCF-7) = assay: Human cancer cell line minipanel: MCF-7; format: cell-based; details: for GI50: read-out: GI50 MCF-7 (nanomolar value in parentheses)
# prostate (DU-145) = assay: Human cancer cell line minipanel: DU-145; format: cell-based; details: for GI50: read-out: GI50 DU-145 (nanomolar value in parentheses)
# lung (NCI-H460) = assay: Human cancer cell line minipanel: NCI-H460; format: cell-based; details: for GI50: read-out: GI50 NCI-H460 (nanomolar value in parentheses)
# [3] = Solubility in distilled water
# Protocol: The remaining salts (3e-h) were prepared directly from the free acid 10b by treatment with the appropriate base or amino acid. The solubilities of each salt and of precursor 9 were measured in distilled water at room temperature.
# [4] = Storage stability of the free phosphoric acid; format: physicochemical; details: storable for short periods as methanolic solution (<0.01 M at 4° C.)
# Text: The most soluble were the sodium (3b) and potassium (3c) salts (Table 2).
# [5] = murine lymphocytic leukemia (P388)
# [6] = murine lymphocytic leukemia (P388), read-out: ED50 P388 (nanomolar value in parentheses)
Compound,Activity against minipanel of human cancer cell lines (in words) [1],GI50 (order of magnitude over the cell lines) [1],GI50 SF-268 (CNS (SF-268)) [ng/mL],GI50 (CNS (SF-268)) [nM],Activity against P388 (in words) [2],"ED50 P388 [2, 5] [ng/mL]","EC50 [2, 6] [nM]",GI50 BXPC-3 (pancreas (BXPC-3)) [ng/mL],GI50 (pancreas (BXPC-3)) [nM],GI50 KM20L2 (colon (KM20L2)) [ng/mL],GI50 (colon (KM20L2)) [nM],GI50 MCF-7 (breast (MCF-7)) [ng/mL],GI50 (breast (MCF-7)) [nM],GI50 DU-145 (prostate (DU-145)) [ng/mL],GI50 (prostate (DU-145)) [nM],GI50 NCI-H460 (lung (NCI-H460)) [ng/mL],GI50 (lung (NCI-H460)) [nM],Solubility ([3]; in distilled water at 23° C.) [mg/mL],further results
Dov-Val-Dil-Dap-2-aminoquinoline [Compound 4],similarly strong activity,10^−2-10^−3 μg/mL,29,40.1,exceptional activity,31,42.8,29,40.1,7.7,10.6,4.6,6.35,23,31.8,16,22.1,,
"CC[C@H](C)[C@@H]([C@@H](CC(=O)N1CCC[C@H]1[C@H](OC)[C@@H](C)C(=O)NCCc1ccc(O)cc1)OC)N(C)C(=O)[C@@H](NC(=O)[C@H](C(C)C)N(C)C)C(C)C [Compound 9, Dov-Val-Dil-Dap-4-hydroxyphenethylamide]",,,,,exceptional activity,3.6,,,,,,,,,,,,,"Solubility [3]: <1 mg/mL; EC50 ([2]; Mus musculus, P388, read-out: ED50 P388 (nanomolar value in parentheses)): 5 nM"
"C1COCCN1.CC[C@H](C)[C@@H]([C@@H](CC(=O)N1CCC[C@H]1[C@H](OC)[C@@H](C)C(=O)NCCc1ccc(OP(=O)(O)O)cc1)OC)N(C)C(=O)[C@@H](NC(=O)[C@H](C(C)C)N(C)C)C(C)C [Compound 3d, Morpholine Auristatin TP]",,,,,,,,,,,,,,,,,,>72,
Sodium Auristatin TP [Compound 3b],similarly strong activity,10^−2-10^−4 μg/mL,1.25,1.48,exceptional activity,<1,< 1.2,46,54.6,0.61,0.72,0.68,0.81,0.54,0.64,0.88,1.05,>236,
"CC[C@H](C)[C@@H]([C@@H](CC(=O)N1CCC[C@H]1[C@H](OC)[C@@H](C)C(=O)Nc1ccc2ncccc2c1)OC)N(C)C(=O)[C@@H](NC(=O)[C@H](C(C)C)N(C)C)C(C)C [Compound 5, Dov-Val-Dil-Dap-6-aminoquinoline]",similarly strong activity,10^−4 μg/mL,0.16,0.22,exceptional activity,2.6,3.59,0.31,0.43,0.25,0.35,0.14,0.19,0.3,0.41,0.36,0.5,,
"CCC(C)C(C(CC(=O)N1CCCC1C(OC)C(C)C(=O)NCCc1ccc(OP(=O)(O)O)cc1)OC)N(C)C(=O)C(NC(=O)C(C(C)C)N(C)C)C(C)C (stereo not drawn) [Compound 10b, Dov-Val-Dil-Dap-4-(dihydrophosphoryloxy)phenethylamide]",,,,,,,,,,,,,,,,,,,Stability of the pure substance (in words) [4]: quite unstable
"CC[C@H](C)[C@@H]([C@@H](CC(=O)N1CCC[C@H]1[C@H](OC)[C@@H](C)C(=O)NCCc1ccc(OP(=O)([O-])[O-])cc1)OC)N(C)C(=O)[C@@H](NC(=O)[C@H](C(C)C)N(C)C)C(C)C.[K+].[K+] [Compound 3c, Potassium Auristatin TP]",,,,,exceptional activity,7.6,8.7,,,,,,,,,,,>120,
"CC[C@H](C)[C@@H]([C@@H](CC(=O)N1CCC[C@H]1[C@H](OC)[C@@H](C)C(=O)NCCc1ccc(OP(=O)([O-])[O-])cc1)OC)N(C)C(=O)[C@@H](NC(=O)[C@H](C(C)C)N(C)C)C(C)C.[Li+].[Li+] [Compound 3a, Lithium Auristatin TP]",,,,,,,,,,,,,,,,,,>65,
"CC[C@H](C)[C@@H]([C@@H](CC(=O)N1CCC[C@H]1[C@H](OC)[C@@H](C)C(=O)NCCc1ccc(OP(=O)(O)O)cc1)OC)N(C)C(=O)[C@@H](NC(=O)[C@H](C(C)C)N(C)C)C(C)C.NC(CO)(CO)CO [Compound 3f, TRIS Auristatin TP]",,,,,,,,,,,,,,,,,,>51,
